US5840936A, “Aminosterol compounds useful as inhibitors of the sodium/proton exchanger (NHE)” (priority 1995, dated 1998)
Entries after “also recorded” stand apart in the source; their conditions may differ.

Tests used:
rabbit NHE1 = assay: NHE1 inhibition, internal pH in PS120 fibroblasts expressing rabbit NHE1; format: cell-based; conditions: 5 μg/ml squalamine, acid-preloaded
Protocol: (§1) PS120 fibroblasts transfected with rabbit or human NHEl were grown as described above.

human NHE1 = assay: NHE1 inhibition, internal pH in PS120 fibroblasts expressing human NHE1; format: cell-based; conditions: 5 μg/ml squalamine, acid-preloaded
Protocol: as §1

[1] = test system: bovine pulmonary endothelial cells; assay: Growth inhibition of endothelial cells in vitro; format: cell-based; conditions: 1 μg/ml
[2] = test system: human epithelial cell line MCF 10A; assay: Growth inhibition of epithelial cells in vitro; format: cell-based; conditions: 10 μg/ml
[3] = test system: human foreskin fibroblasts; assay: Growth inhibition of fibroblasts in vitro; format: cell-based; conditions: 10 μg/ml
[4] = test system: human microvascular cells; assay: Inhibition of endothelial cell cord formation in vitro; format: cell-based; conditions: concentrations inhibiting cord formation
Source text: Endothelial cells have the capacity in vitro to form tubular aggregates resembling capillaries in various early stages of formation. This conversion occurs under relatively specific conditions, in which essential growth factors along with an effective substratum are provided. It has been shown that both the interaction of growth factors with the endothelial cell and its attachment to a substratum activate the NHE. The activation of this exchanger is believed to be required for subsequent morphologic transformation of the endothelial cell into a multicellular tubular structure.
To assess the effect of compounds on the cord-like structures formed by human microvascular cells when plated in the presence of VEGF (Vascular Endothelial Growth Factor) and basic fibroblast growth factor on a collagen matrix, a standard cord formation assay was used.

[5] = test system: chick chorioallantoic membrane capillaries; assay: Chorioallantoic membrane (CAM) model, inhibition of capillary growth; format: in vivo; conditions: for Percentage positive, Assay 1 / Percentage positive, Assay 2 / Percentage positive, Mean: 3-day embryo
Source text: The growing capillaries within the chorioallantoic membrane model (CAM model) have been used as a system in which to evaluate the effect of agents on their potential to inhibit new vessel growth. Neovascularization occurs most aggressively over the first week of embryonic development. Thereafter capillary growth is characterized by principally "elongation" rather than "de novo" formation.
In the standard assay, agents are applied locally to a region of the embryo over which neovascularization will occur. Agents are assessed by their ability to inhibit this process, as evaluated by visual examination about 7 days after application. […] The assay utilized is described in detail in Auerbach et al., Pharm. Ther. 51, 1991, 1-11.

[6] = test system: chick embryo vitelline capillaries; assay: Chick embryo vitelline capillary regression assay; format: in vivo; design: key to Vitelline capillary regression: +: Vascular reactivity; 0: No vascular reactivity; +/-: Equivocal reactivity
Protocol: Using the chick embryo vitelline capillaries assay, compounds were tested for their ability to induce capillary regression. Each compound was applied in 0.1 ml of 15% Ficol 400 and PBS onto the embryo, and vascular regression was assessed after 60 minutes.
The 3-day chick embryo consists of an embryonic disc from which numerous vessels emerge and return, forming a "FIG. 8"-shaped structure--the embryo in the center with vascular loops extending outward over both poles. […] Following a lag period of around 15 minutes, the constriction of continuity between capillary and secondary vessels, generally on the "venous" side, was observed. Continued pulsatile blood flow progressed, resulting in a "swelling" of the blind tube, followed by a pinching off of the remaining connection and formation of an enclosed vascular sac resembling a "blood island." This process progressed until only the largest vessels remained intact.

B16 melanoma = assay: Suppression of B16 melanoma growth in C57B mice; format: in vivo, mouse
Protocol: The growth of B16 melanoma in C57B mice is dependent upon neovascularization.
Using the growth of B16 melanoma cells in C57B mice, a recognized model for the evaluation of inhibitors of angiogenesis on the growth of cancers, the effects of subcutaneous, intraperitoneal and oral administration of squalamine were evaluated.
Animals were implanted with B16 melanoma followed by treatment with compound 1436 or 1256 administered in a combined schedule or separately. […] Thus, a combination of these two compounds achieves a theraputic benefit in tumors dependent on neovascularization that may prevent metastatic spread.

human melanoma 1205Lu = assay: Suppression of human melanoma in RAG-1 mice; format: in vivo
Source text: As apparent from FIG. 5, melanoma 120SLu develops aggressively in RAG-1 mice after implantation.

[7] = Fasting blood glucose in mice; format: in vivo, male CD-1 mice; conditions: total dose 20 mg/kg i.v. (2 × 10 mg/kg), 30 min. after 2d dose
Protocol: To study the effect of steroid administrator or the NHE responsible for secretion of insulin, several of the aminosterols from shark liver were administered to fasting mice. Male CD-1 mice were assigned to one of four treatment groups. Whole blood glucose was tested using glucometer (Lifescan Glucometer II and One Touch test strips). Statistical analysis was via one-way analysis of variance (ANOVA) followed by subsequent Bonferonni's t-test.

[8] = test system: human coronary artery smooth muscle; assay: Growth of human coronary artery smooth muscle in vitro; format: cell-based; conditions: in vitro
Source text: Aminosterols of the invention may also have utility in inhibiting the growth factor mediated proliferation of smooth muscle within the artery. Following coronary angioplasty, reocclusion commonly occurs, secondary to reparative proliferation of the vascular smooth muscle within the wall of the surgically manipulated blood vessel. This process generally takes place over the course of 7-10 days. To evaluate whether an agent could prevent the growth factor mediated proliferation of smooth muscle within the artery, compound 1436 was evaluated in vitro for its effect on the proliferation of human coronary artery smooth muscle. Results for compound 1436 are shown in FIG. 13, and those for squalamine are shown in FIG. 14, with FIG. 15 being a composite logarithmic plot.

ELC = ELC MTT; format: cell-based; conditions: Table II; read-out: ELC MTT, Minimum Effective Concentration
[9] = test system: Xenopus tadpoles, stage 59-60; conditions: 10 μg/mL
[10] = test system: Xenopus tadpoles, stage 59-60; assay: Xenopus tadpole assay; conditions: 10 μg/ml
rabbit NHE3 = rabbit NHE3 (Oryctolagus cuniculus, UniProt P26432); assay: NHE3 inhibition, internal pH (BCECF-AM) in transfected PS120 fibroblasts
Chain of rabbit NHE3 (P26432 30-832): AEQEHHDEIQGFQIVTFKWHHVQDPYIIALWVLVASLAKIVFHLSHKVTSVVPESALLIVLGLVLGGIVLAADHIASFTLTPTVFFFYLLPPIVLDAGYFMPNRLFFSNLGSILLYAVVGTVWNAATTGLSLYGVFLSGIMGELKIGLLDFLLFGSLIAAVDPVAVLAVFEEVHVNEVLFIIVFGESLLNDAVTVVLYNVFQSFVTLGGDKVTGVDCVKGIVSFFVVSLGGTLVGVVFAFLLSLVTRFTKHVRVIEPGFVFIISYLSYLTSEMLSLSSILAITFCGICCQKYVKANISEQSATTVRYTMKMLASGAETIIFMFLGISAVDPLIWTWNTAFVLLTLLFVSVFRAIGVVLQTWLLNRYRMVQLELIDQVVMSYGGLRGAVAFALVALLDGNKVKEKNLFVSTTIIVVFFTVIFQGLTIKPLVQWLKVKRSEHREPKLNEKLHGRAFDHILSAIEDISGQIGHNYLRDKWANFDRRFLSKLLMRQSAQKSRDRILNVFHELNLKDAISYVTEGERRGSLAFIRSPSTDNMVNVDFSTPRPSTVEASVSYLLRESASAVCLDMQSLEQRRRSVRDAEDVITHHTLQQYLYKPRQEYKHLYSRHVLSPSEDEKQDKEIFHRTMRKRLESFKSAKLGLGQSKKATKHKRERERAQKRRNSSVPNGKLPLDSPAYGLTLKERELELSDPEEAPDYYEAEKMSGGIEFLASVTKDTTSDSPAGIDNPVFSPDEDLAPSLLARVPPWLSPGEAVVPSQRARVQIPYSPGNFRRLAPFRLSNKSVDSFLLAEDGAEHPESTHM
Protocol: Internal pH was measured either following acid loading or in the absence of an acid-loading challenge, with the results shown in FIGS. 1A and 1B.
Specifically, PS120 fibroblasts transfected with rabbit NHE3 were grown in supplemented Dulbecco's-modified Eagle's medium as described by Levine et al., J. Biol. Chem. 268, 1993, 25527-25535. […] For cells not acid-preloaded, the actual internal pH value was monitored as a function of time following addition of squalamine, with the results depicted in FIG. 1B.
PS120 fibroblasts transfected with rabbit NHE3 were grown and acid preloaded by exposure to 40 mM NH4 Cl as described above in conjunction with FIGS. 1A and 1B. Internal cellular pH changes expressed as the rate of pH recovery as a function of restored extracellular sodium ion concentration following exposure to 10 μg/ml of the compound were assayed with the fluorescent dye BCECF-AM as described above.

[11] = test system: human umbilical venous endothelial cells; assay: LPS-induced neutrophil adherence to human umbilical venous endothelial cells; conditions: 10 μg, 1.0 μg, or 0.1 μg; LPS or TNF-α
Protocol: In these experiments, approximately 2×10^5 human umbilical venous cells (passage 2-6) were plated per well. The cells were grown in serum-free media overnight. For induction, either TNF-α (40 ng/ml) was added to endothelial cells for 6 hours prior to adding neutrophils or LPS (100 ng/ml) was added for 4-6 hours. […] After activation of the endothelial cells, approximately 50×10^6 neutrophils were added per well. The plates were gently rocked for 30 minutes at room temperature, followed by removal of the media and washing in serum-free media three times and then photographing of each well. […] A monoclonal Ab to ICAM-1 was a positive control.

Mouse IV PK study = conditions: in vivo
Protocol: To assess clearance, a mouse IV PK study was performed for compound 319 and squalamine. The compound was administered i.v. and blood samples were taken every 10 minutes. The concentration of the administered steroid was determined by HPLC analysis.

[12] = 20 μg applied, some vascular irritation noted
[13] = 40 μg applied, some vascular irritation noted

CC(C)[C@@H](CC[C@@H](C)[C@H]1CC[C@H]2[C@@H]3[C@H](O)C[C@H]4C[C@@H](NCCCNCCCCN)CC[C@]4(C)[C@H]3CC[C@]12C)OS(=O)(=O)O [Compound 1256]
Inhibition of rabbit NHE1 (rabbit NHE1): no inhibitory activity; also recorded: lack of inhibition of rabbit sodium/proton exchanger isoform 1 (NHE1) | Inhibition of human NHE1 (human NHE1): no inhibitory activity; also recorded: lack of inhibition of human NHE1 | Growth inhibition of bovine pulmonary endothelial cells (BPE) [1]: inhibited the growth of bovine pulmonary artery endothelial cells (BPE) | Growth inhibition of epithelial cells [2]: no effect | Growth inhibition of fibroblasts [3]: no effect | Effect on cell viability or proliferation [4]: does not appear to profoundly affect cell viability or proliferation | Inhibition of CAM vessel neovascularization ([5]; 3-day CAM, 0.65 μg): inhibition of CAM vessel neovascularization | Percentage positive, Assay 1 ([5]; 0.65 μg applied): 28% | Percentage positive, Assay 1 ([5]; 1.25 μg applied): 18% | Percentage positive, Assay 2 ([5]; 1.25 μg applied): 18% | Percentage positive, Mean ([5]; 1.25 μg applied): 18% | Percentage positive, Assay 1 ([5]; 2.5 μg applied): 35% | Percentage positive, Assay 2 ([5]; 2.5 μg applied): 18% | Percentage positive, Mean ([5]; 2.5 μg applied): 27% | Percentage positive, Assay 1 ([5]; 5.0 μg applied): 91% | Percentage positive, Assay 2 ([5]; 5.0 μg applied): 57% | Percentage positive, Mean ([5]; 5.0 μg applied): 74% | Percentage positive, Mean ([5]; 20 μg applied): 55% | Percentage positive, Assay 1 [5, 12]: 52% | Percentage positive, Assay 2 [5, 12]: 58% | Percentage positive, Mean ([5]; 40 μg applied): 32% | Percentage positive, Assay 1 [5, 13]: 50% | Percentage positive, Assay 2 [5, 13]: 13% | Percentage positive ([5]; 13-day embryo, 5.0 μg applied): 0/26 | Inhibition of CAM vessel neovascularization ([5]; 13-day old chick, ten times that amount): no inhibitory effect | Vitelline capillary regression ([6]; 0.001 μg applied): 0 | Vitelline capillary regression ([6]; 0.01 μg applied): + | Vitelline capillary regression ([6]; 0.1 μg applied): + | Vitelline capillary regression ([6]; 1 μg applied): + | Vitelline capillary regression ([6]; 10 μg applied): + | Hemorrhage / hemolysis in chick embryo ([6]; 0.1 ml in 15% Ficol in PBS, listed as Squalamine): No hemorrhage was seen; also recorded: absence of hemolysis | Effect on chick embryo vessels ([6]; 3- to 5-day chick embryo): disrupt vitelline capillaries in 3- to 5-day chick embryos | Chick embryo diss. assay, Minimum Effective Concentration ([6]; Table II): 0.01 µg | Body weight and hematologic parameters (B16 melanoma; squalamine): no significant depression | Impact on tumor volume (B16 melanoma; squalamine 5 mg/kg/day): no significant impact on tumor volume | Tumor growth effect of single agent compared with combination (B16 melanoma; squalamine 15 mg/kg/day, compound 1436 alone in a tolerable schedule): Neither administration of squalamine at 15 mg/kg/day nor compound 1436 alone in a tolerable schedule could achieve this effect | Suppression of tumor volume (B16 melanoma; squalamine, subcutaneous, intraperitoneal or oral): dose-dependent suppression of tumor volume | Tumor growth after cessation of treatment (human melanoma 1205Lu): tumor growth continued at a rate similar to untreated controls | Suppression of growth of melanoma 1205Lu (human melanoma 1205Lu; 10, 20, 40 mg/kg/d, listed as Squalamine): suppress the growth of melanoma 1205Lu in RAG-1 mice in a dose-dependent fashion; also recorded: clear suppression of tumor growth in a dose-dependent fashion | Fasting Blood Glucose Mean ± SEM [7]: 65 ± 7.3 mg/dL | Suppression of growth of human coronary artery smooth muscle [8]: suppress in vitro the growth of human coronary artery smooth muscle | minimal effective concentration (ELC): 13.2 µg/mL | Tadpole E (epithelial) [9]: - | Tadpole GI (gastrointestinal) [9]: - | Tadpole M (melanocytes) [9]: - | Tadpole Mus (muscle) [9]: - | Tadpole V (vascular) [9]: + | Tadpole assay, observed effects [10]: Vascular occlusion in fine capillaries of tail; also recorded: No effect on vascular flow through hands or feet | Tadpole time to death [10]: ≤ 2 h | Tadpole assay, observed effects ([10]; listed as squalamine): blood flow through the capillaries of the tail shut down; also recorded: unaltered blood flow through the fine capillaries of the hands and feet; also recorded: common vascular occlusive effect | Inhibition of NHE3 (rabbit NHE3; 5 μg/ml squalamine, acid-preloaded and not acid-preloaded cells): inhibited NHE3 with respect to proton concentration at both Km and Vmax levels | Effect on resting pH (rabbit NHE3; 5 μg/ml, not acid-preloaded): causes the cell to drop to a lower pH in its presence before activation of the pump occurs | NHE isoform specificity (rabbit NHE3; NHE3 vs NHE1, listed as squalamine): inhibits NHE3, but not NHE1; also recorded: specificity for NHE3 over NHE1 | Inhibition of neutrophil adherence [11]: no inhibition

C[C@H](CCC(=O)O)[C@H]1CC[C@H]2[C@@H]3CC[C@H]4C[C@@H](NCCCNCCCCN)CC[C@]4(C)[C@H]3CC[C@]12C [Compound 319]
Vitelline capillary regression ([6]; 0.001 μg applied): +/- | Vitelline capillary regression ([6]; 0.01 μg applied): + | Vitelline capillary regression ([6]; 0.1 μg applied): + | Vitelline capillary regression ([6]; 1 μg applied): + | Vitelline capillary regression ([6]; 10 μg applied): + | Control of B16 in C57B mice (B16 melanoma; compound 319, subcutaneous, intraperitoneal (FIG. 6 legend)): control of B16 in C57B mice to an extent almost comparable to squalamine | half-life (Mouse IV PK study): about 14 minute | Tadpole assay, observed effects [10]: common vascular occlusive effect | Potency as an NHE inhibitor compared with squalamine (rabbit NHE3): superior to squalamine
